This note sets out measurements from patent US20160120864A1, “Novel Pyrrole Derivatives” (priority 2013, published 2016).

Counter-ions that a name gives are not always drawn.

One data set concerns the target pneumolysin (Streptococcus pneumoniae serotype 2, UniProt Q04IN8). Description: Inhibition of the haemolytic activity of pneumolysin (sheep erythrocytes). Type of data set: cell-based. On the procedure: A. Primary In Vitro Assay: Inhibition of the Haemolytic Activity of Pneumolysin
The basis of this assay is that when pneumolysin is added to red blood cells, it induces their lysis and leads to the release of haemoglobin. In the presence of an inhibitory compound, pneumolysin-induced lysis is abolished, the red blood cells pellet at the bottom of the microtitre plate well and the supernatant is clear. However, if the compound is not inhibitory, the red blood cells are lysed and haemoglobin is released into the supernatant.
Test compound solutions (typically at 5 mM in DMSO) were diluted 1:1 in 100% DMSO. The compounds were then two-fold serially diluted in 100% DMSO across 11 wells of 96-well round-bottomed microtitre plate. PBS was then added to all the wells to achieve a 1:10 dilution of the compound in PBS. Pneumolysin was then added at a concentration equal to its LD100. Plates were then incubated at 37° C. for 30-40 min. After the incubation period, an equal volume of 4% (v/v) sheep erythrocyte suspension was added to each well and the plates incubated again at 37° C., for at least 30 min. […] Following the incubation with the erythrocytes, the Absorbance at 595 nm of each well was measured and the data used to determine the IC50 for each test compound. The IC50 values were determined using non-linear regression curve fitting. […]

The nature of data set [1]: physchem. The class given is physicochemical. The conditions noted are these: for solubility: aqueous buffer, thermodynamic from solid, PBS pH 7.2; for Solubility in aqueous formulations compatible with intravenous dosing (in words): aqueous formulations at the desired concentrations. The method, then: PBS solutions for solubility and stability studies were prepared by dissolving 1 Oxoid™ tablet (obtained from Thermo Scientific) in deionised water (100 mL).
Solubility studies were performed by charging a vial with 5-10 mg of compound followed by the addition of PBS solution to achieve a concentration of 100 mg/ml. If solubility was not observed, the solution was diluted to concentrations of 50 mg/ml, 25 mg/ml and 4 mg/ml consecutively until complete solubility was observed.

Data set [2] can be described thus: physchem. Type of data set: physicochemical. The conditions noted are these: buffer; PBS, 37.5° C.; read-out: Chemical stability in aqueous formulation (t½) (converted). On the procedure:
Stability studies were carried out by dissolving 1-2 mg of compound in DMSO (1 mL) followed by addition of 0.4 mL of the resulting solution to stirred PBS solution (9.6 mL) at 37.5° C. A sample (ca. 0.5 mL) was immediately taken for HPLC analysis. Further samples were then taken for analysis at various timepoints thereafter. Half-lives were determined from the decrease in concentration of compound with respect to time.
Stability studies were performed by dissolving 1-2 mg of compound in DMSO (1 ml) followed by addition of 0.4 ml of the resulting solution to stirred PBS (9.6 ml) at 37.5° C. A sample (-j 0.5 ml) was immediately taken for HPLC analysis. Further samples were then taken for analysis at various time-points thereafter. Half-lives were determined from the decrease in concentration of compound with respect to time.

Data set [3] is classed as in vitro ADME. The conditions noted are these: mouse plasma, 37° C., starting 10 μM. On the procedure: The samples were then analysed by LC-MS/MS to obtain the amount of active compound appearing and prodrug derivative remaining over time.
The prodrug derivative of the invention was assessed in mouse plasma stability assay at a concentration of 10 μM. Test compounds were diluted in DMSO to a final stock concentration of 10 mM. For the purpose of the assay, the stocks prepared were further diluted in DMSO to a concentration of 400 μM and 5 μL were added to 195 μL of mouse plasma (pH 7.4) and then incubated at 37° C. The final concentration of DMSO in the plate was 2.5% (v/v). Reactions were terminated at 0, 15, 30, 60 and 120 min after incubation by adding 400 μL of acetonitrile containing 0.55 μM metoprolol and 1% (v/v) formic acid. The plate was then centrifuged at 3000 rpm, for 45 min, at 4° C. 80 μL of supernatant were transferred into a conical bottom 96 well glass coated plate. 40 μL of water were added prior to analysis for prodrug derivative and active species by LC-MS/MS. This assay was performed by a contract research organisation, Cyprotex Discovery Limited, UK, at the request of the inventors at Leicester.
The quantification of the prodrug compound remaining and the parent active compound appearing was performed as follows:
(1) The parent active compound was quantified using a 6 point calibration curve prepared in deactivated mouse plasma. (2) The percentage of prodrug compound remaining at each time point relative to 0 min sample was calculated from LC-MS/MS peak area ratios (compound peak area/internal standard peak area). This percentage was then used to determine the concentration of the prodrug compound at each time point in reference to the starting concentration (10 μM) at time 0 min.

pneumolysin, sequence (Q04IN8 whole entry): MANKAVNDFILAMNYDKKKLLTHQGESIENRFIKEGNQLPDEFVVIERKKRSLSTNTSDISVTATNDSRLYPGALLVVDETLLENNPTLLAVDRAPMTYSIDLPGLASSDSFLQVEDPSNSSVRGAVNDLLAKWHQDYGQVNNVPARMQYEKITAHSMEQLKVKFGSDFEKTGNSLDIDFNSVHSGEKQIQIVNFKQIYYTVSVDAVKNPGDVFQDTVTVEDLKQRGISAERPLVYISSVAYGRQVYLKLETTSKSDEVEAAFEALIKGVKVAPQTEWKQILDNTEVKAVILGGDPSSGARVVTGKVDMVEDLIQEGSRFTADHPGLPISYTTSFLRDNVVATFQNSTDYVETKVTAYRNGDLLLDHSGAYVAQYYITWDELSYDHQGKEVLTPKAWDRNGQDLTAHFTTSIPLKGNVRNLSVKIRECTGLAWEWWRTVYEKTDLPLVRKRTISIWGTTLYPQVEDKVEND

The term IC50 denotes the point on the concentration scale where inhibition reaches its midpoint. A low value points to higher potency. One may read the solubility as how much of the substance goes into solution per volume. A low value points to little dissolved substance. In turn, `COc1ccc(-n2c(C(=O)N3CCN(C)CC3)c(O)c(O)c2C(=O)N2CCN(C)CC2)cc1` [UL7-001, (3,4-Dihydroxy-1-(4-methoxyphenyl)-1H-pyrrole-2,5-diyl)bis((4-methylpiperazin-1-yl)methanone)] yielded an IC50 on pneumolysin of 0.3 µM. Further, in “physchem [1]”, the solubility is at least 100 mg/mL and the “Solubility in aqueous formulations compatible with intravenous dosing (in words)” value is “readily soluble”. Further, the half-life in “physchem [2]” is below 30 min.
In the case of `COc1ccc(-n2c(C(=O)N3CCN(C)CC3)c(OC(=O)C(C)C)c(OC(=O)C(C)C)c2C(=O)N2CCN(C)CC2)cc1` [UL7-002, 1-(4-Methoxyphenyl)-2,5-bis(4-methylpiperazine-1-carbonyl)-1H-pyrrole-3,4-diyl bis(2-methylpropanoate)dihydrochloride], the concentration for half-maximal inhibition (IC50) on pneumolysin came to 6.8 µM. Moreover, in “physchem [1]”, the solubility is at least 100 mg/mL and the “Solubility in aqueous formulations compatible with intravenous dosing (in words)” value is given as “readily soluble”. Besides, the half-life in “physchem [2]” is 2820 min. Further, the “Prodrug (UL7-002) concentration remaining, t0 min.” value in data set [3] (0 min) was found to be 10.00 µM. In addition, the “Prodrug (UL7-002) concentration remaining, t15 min.” value in data set [3] (15 min) came to 0.00 µM. In data set [3] (30 min), the “Prodrug (UL7-002) concentration remaining, t30 min.” value was found to be 0.01 µM. In addition, the “Prodrug (UL7-002) concentration remaining, t60 min.” value in data set [3] (60 min) worked out at 0.00 µM. Further, in data set [3] (120 min), the “Prodrug (UL7-002) concentration remaining, t120 min.” value is 0.00 µM.
